Data as given in patent US7001921B1, “Cell adhesion inhibitors” (Biogen Idec MA Inc., priority 1995, dated 2006).

The molecules below were run against T1, VLA4 (Homo sapiens, UniProt P05556+P13612) (assay: Inhibition of VLA4-dependent adhesion to BSA-CS1 (labelled Ramos cells)). Details: binding of BCECF-AM labelled Ramos cells to CS1 peptide-coated wells, 2 mM MnCl2, 30 minutes at room temperature; IC50 range.
T1 construct: endogenous in cells; host or cells: Ramos cells
T1 sequence (P13612 34-1032): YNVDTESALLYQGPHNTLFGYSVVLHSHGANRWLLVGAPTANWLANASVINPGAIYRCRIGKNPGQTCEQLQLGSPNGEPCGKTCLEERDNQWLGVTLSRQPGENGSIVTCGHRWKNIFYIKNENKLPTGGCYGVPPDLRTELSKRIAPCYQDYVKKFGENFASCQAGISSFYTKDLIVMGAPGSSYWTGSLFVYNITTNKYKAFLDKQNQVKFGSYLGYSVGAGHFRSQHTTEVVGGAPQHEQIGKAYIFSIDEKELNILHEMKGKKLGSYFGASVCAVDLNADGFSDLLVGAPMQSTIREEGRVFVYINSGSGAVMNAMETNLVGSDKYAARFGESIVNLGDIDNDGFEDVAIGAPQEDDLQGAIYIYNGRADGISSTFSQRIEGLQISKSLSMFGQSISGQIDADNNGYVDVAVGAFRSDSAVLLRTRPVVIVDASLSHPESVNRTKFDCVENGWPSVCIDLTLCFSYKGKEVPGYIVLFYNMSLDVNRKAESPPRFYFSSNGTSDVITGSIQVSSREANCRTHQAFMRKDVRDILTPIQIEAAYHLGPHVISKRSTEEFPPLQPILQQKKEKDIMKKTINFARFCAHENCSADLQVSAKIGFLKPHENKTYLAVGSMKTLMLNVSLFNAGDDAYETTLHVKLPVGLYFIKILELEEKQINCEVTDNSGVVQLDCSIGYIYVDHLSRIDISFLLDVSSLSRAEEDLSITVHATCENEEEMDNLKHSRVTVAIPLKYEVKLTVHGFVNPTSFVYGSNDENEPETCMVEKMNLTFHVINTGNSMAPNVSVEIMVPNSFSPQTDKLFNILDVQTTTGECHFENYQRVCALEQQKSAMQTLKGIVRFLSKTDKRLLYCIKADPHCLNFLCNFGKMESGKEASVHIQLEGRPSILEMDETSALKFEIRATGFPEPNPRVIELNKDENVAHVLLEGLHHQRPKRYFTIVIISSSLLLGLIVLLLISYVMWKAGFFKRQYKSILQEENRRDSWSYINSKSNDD
T1 sequence (P05556 21-798): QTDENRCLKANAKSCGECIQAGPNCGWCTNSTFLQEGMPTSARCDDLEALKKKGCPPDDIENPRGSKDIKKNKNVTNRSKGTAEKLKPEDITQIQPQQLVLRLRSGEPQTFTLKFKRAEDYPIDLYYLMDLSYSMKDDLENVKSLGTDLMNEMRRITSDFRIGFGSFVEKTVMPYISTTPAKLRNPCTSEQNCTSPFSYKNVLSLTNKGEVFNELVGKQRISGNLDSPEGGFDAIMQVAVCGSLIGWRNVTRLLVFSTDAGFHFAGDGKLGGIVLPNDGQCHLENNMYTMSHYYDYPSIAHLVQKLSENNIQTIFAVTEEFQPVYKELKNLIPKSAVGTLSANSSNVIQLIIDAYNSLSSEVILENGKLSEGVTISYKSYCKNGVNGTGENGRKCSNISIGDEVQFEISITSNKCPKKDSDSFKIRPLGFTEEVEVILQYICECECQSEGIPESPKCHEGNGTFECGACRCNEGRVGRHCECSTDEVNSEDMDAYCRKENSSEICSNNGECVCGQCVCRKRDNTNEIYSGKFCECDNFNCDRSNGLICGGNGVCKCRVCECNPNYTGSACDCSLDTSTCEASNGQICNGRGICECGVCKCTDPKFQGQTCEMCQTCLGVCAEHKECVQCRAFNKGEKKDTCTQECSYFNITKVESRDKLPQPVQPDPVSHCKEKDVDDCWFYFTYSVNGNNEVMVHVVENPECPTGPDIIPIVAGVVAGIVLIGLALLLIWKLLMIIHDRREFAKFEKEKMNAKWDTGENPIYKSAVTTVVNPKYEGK
Format: cell-based
Text: For example, the cell adhesion inhibitory activity of these compounds may be measured by determining the concentration of inhibitor required to block the binding of VLA-4-expressing cells to fibronectin- or CS1-coated plates. In this assay microtiter wells are coated with either fibronectin (containing the CS-1 sequence) or CS-1. If CS-1 is used, it must be conjugated to a carrier protein, such as bovine serum albumin, in order to bind to the wells. Once the wells are coated, varying concentrations of the test compound are then added together with appropriately labelled, VLA-4-expressing cells. Alternatively, the test compound may be added first and allowed to incubate with the coated wells prior to the addition of the cells. The cells are allowed to incubate in the wells for at least 30 minutes. Following incubation, the wells are emptied and washed. Inhibition of binding is measured by quantitating the fluorescence or radioactivity bound to the plate for each of the various concentrations of test compound, as well as for controls containing no test compound.
VLA-4-expressing cells that may be utilized in this assay include Ramos cells, Jurkat cells, A375 melanoma cells, as well as human peripheral blood lymophocytes (PBLs). The cells used in this assay may be fluorescently or radioactively labelled.
This assay was used to assess the potency of VLA4-directed inhibitory compounds of this invention.
We dissolved BSA-SMCC (Pierce Chemical, Rockford, Ill.; Catalog # 77115) in H2O at a concentration of 10 mg/mL. [SEQ ID NO:4]: […](“Cys-Tyr-CS1 peptide”), which we synthesized by conventional solid phase chemistry and purified by HPLC, was dissolved in 10 mM HEPES pH 5, 50 mM NaCl and 0.1 mM EDTA also at a concentration of 10 mg/mL. We then mixed 500 μL of BSA-SMCC, 250 μL of Cys-Tyr-CS1 peptide and 75 μL of […] and allowed the conjugation reaction to proceed for 30 minutes. We stopped the reaction by adding 1 μL of beta-mercaptoethanol. Samples were analyzed for cross-linking by SDS-PAGE. This reaction produced multiple molecules of the Cys-Tyr-CS1 peptide conjugate to each BSA molecule.
We coated the wells of a Linbro titertek polystyrene 96-well flat bottom plate (Flow Laboratories, Maclean, Va.; catalog #76-231-05) with 100 μL of the above-described BSA-CS1 solution diluted to 1 μg/mL in 0.05 M NaHCO3 (15 mM NaHCO3, 35 mM Na2CO3) pH 9.2. Some wells were not coated with CS1 in order to assess non-specific cell binding (NSB). The plate was then incubated overnight at 4° C.
Following this incubation, the contents of the wells were removed by inverting and blotting the plate. All of the wells were then blocked with 100 μL of 1% BSA in PBS, 0.02% NaN3, for a minimum of one hour at room temperature.
3. Preparation of Fluorescently Labelled Ramos Cells Ramos cells are grown, maintained and labelled in RPMI 1640 culture medium containing 1% BSA. Just prior to running the assay, we added 2′,7′-bis-(2-carboxyethyl)5 (and -6) carboxyfluorescein acetoxymethyl ester (“BCECF-AM”; Molecular Probes Inc., Eugene, Oreg.; catalog #B-1150) to a final concentration of 2 μM to a culture of Ramos cells (4×10^6 cells/mL). We incubated the cells for 20 minutes at 37° C.
Following labelling, the cells were washed twice in assay buffer (24 mM TRIS, 137 mM NaCl, 2.7 mM KCl, pH 7.4, containing 0.1% BSA and 2 mM glucose) to remove any cations originating from the culture medium. The cells were then resuspended in assay buffer to 4×10^6 cells/mL and 2 mM MnCl2 was added to upregulate VLA4 on the surface of the cells.
Immediately prior to running the assay, we removed the BSA blocking solution from the 96-well plates and washed the wells with 100 μL of assay buffer. We then added to each well 25 μL of test cell adhesion inhibitory compound at 2× the final concentration and 25 μL of the labelled Ramos cells. Final concentrations were selected across a range of anticipated IC50s, usually between 0.01 nM–10 μM. […]
With `CCNC(=O)Nc1ccc(CC(=O)NC(CC(C)C)C(=O)NC(CC(=O)O)c2ccc3c(c2)OCO3)cc1` (centres unmarked) [compound 1077] the IC50 was 0.05 to 10 µM. `COc1ccc(C(CC(=O)O)NC(=O)C(CCCCNC(=O)OCc2ccccc2)NC(=O)Cc2ccc(NC(=O)Nc3ccccc3C)cc2)cc1OC` (centres unmarked) [compound 1217] was tested, and the IC50 was under 0.05 µM. `CC(C)CC(NC(=O)Cc1ccccc1NC(=O)c1ccccc1)C(=O)NC(CC(=O)O)c1ccccc1` (centres unmarked) [compound 1026] gave an IC50 of over 10 µM. `COC(=O)c1ccc(C(CC(=O)O)NC(=O)C(CCCCNS(C)(=O)=O)NC(=O)Cc2ccc(NC(=O)Nc3ccccc3C)cc2)cc1` (centres unmarked) [compound 1382] gave an IC50 of under 0.05 µM. `COc1ccc(C(CC(=O)O)NC(=O)C(CC(C)C)NC(=O)Cc2ccc(NC(=O)Nc3ccccn3)cc2)cc1` (centres unmarked) [compound 1194] was tested, and the IC50 was 0.05 to 10 µM. In the case of `CC(C)CC(NC(=O)Cc1ccc(NC(=O)N2CCOCC2)cc1)C(=O)NC(CC(=O)O)c1ccc2c(c1)OCO2` (centres unmarked) [compound 1198], the IC50 is reported as over 10 µM. `CCC(C)C(NC(=O)Cc1ccc(NC(=O)Nc2ccccc2)cc1)C(=O)NC(CC(=O)O)c1ccc2c(c1)OCO2` (centres unmarked) [compound 1133] was tested, and the IC50 was 0.05 to 10 µM. For `CCC(C)C(NC(=O)Cc1ccc(NC(=O)Nc2ccccc2)cc1)C(=O)NC(CC(=O)O)c1ccccc1` (centres unmarked) [compound 1131], the IC50 was 0.05 to 10 µM. In the case of `CC(C)CC(NC(=O)Cc1ccncc1)C(=O)NC(CC(=O)O)c1ccccc1` (centres unmarked) [compound 1007], the IC50 is reported as over 10 µM. `O=C(O)CC(NC(=O)C(COCc1ccccc1)NC(=O)Cc1ccccc1)c1ccccc1` (centres unmarked) [compound 1126] showed an IC50 of over 10 µM. `CC(C)CC(NC(=O)Cc1ccccc1N)C(=O)NC(CC(=O)O)c1ccccc1` (centres unmarked) [compound 1024] showed an IC50 of over 10 µM. `CC(C)CC(NC(=O)Cc1ccc(NC(=O)Nc2ccccc2[N+](=O)[O-])cc1)C(=O)NC(CC(=O)O)c1ccc2c(c1)OCO2` (centres unmarked) [compound 1201] was tested, and the IC50 was 0.05 to 10 µM. With `CC(C)CC(NC(=O)Cc1cccc(NC(=O)c2ccccc2)c1)C(=O)NC(CC(=O)O)c1ccccc1` (centres unmarked) [compound 1020] the IC50 was over 10 µM. Work on `CNC(=O)Nc1ccc(CC(=O)NC(CC(C)C)C(=O)NC(CC(=O)O)c2ccc3c(c2)OCO3)cc1` (centres unmarked) [compound 1064] yielded an IC50 of 0.05 to 10 µM. With `CC(=O)NCCCCC(NC(=O)Cc1ccc(NC(=O)Nc2ccccc2C)cc1)C(=O)NC(CC(=O)O)c1ccc2c(c1)OCO2` (centres unmarked) [compound 1270] the IC50 was under 0.05 µM. `COc1ccccc1C(CC(=O)O)NC(=O)C(CC(C)C)NC(=O)Cc1ccc(O)cc1` (centres unmarked) [compound 1070] showed an IC50 of 0.05 to 10 µM. With `CC(C)CC(NC(=O)c1c[nH]c2ccccc12)C(=O)NC(CC(=O)O)c1ccccc1` (centres unmarked) [compound 1014] the IC50 was over 10 µM. `CC(C)CC(NC(=O)Cc1ccc(NC(=O)Cc2ccccc2)cc1)C(=O)NC(CC(=O)O)c1ccccc1` (centres unmarked) [compound 1023] gave an IC50 of 0.05 to 10 µM. `CC(C)CC(NC(=O)Cc1ccc(NC(=O)Nc2cccnc2)cc1)C(=O)NC(CC(=O)O)c1ccc2c(c1)OCO2` (centres unmarked) [compound 1080] gave an IC50 of 0.05 to 10 µM. `CC(C)CC(NC(=O)Cc1ccc(NC(=O)OCc2ccccc2)cc1)C(=O)NC(CC(=O)O)c1ccccc1` (centres unmarked) [compound 1101] was tested, and the IC50 was over 10 µM. `CN(C)C(=O)CC(NC(=O)Cc1ccc(NC(=O)Nc2ccccc2)cc1)C(=O)NC(CC(=O)O)c1ccc2c(c1)OCO2` (centres unmarked) [compound 1214] gave an IC50 of 0.05 to 10 µM. With `CC(C)(C)OC(=O)NCC(NC(=O)Cc1ccc(NC(=O)Nc2ccccc2)cc1)C(=O)NC(CC(=O)O)c1ccccc1` (centres unmarked) [compound 1134] the IC50 was 0.05 to 10 µM. `COc1ccc(C(CC(=O)O)NC(=O)C(CC(C)C)NC(=O)Cc2ccccc2)cc1` (centres unmarked) [compound 1178] showed an IC50 of 0.05 to 10 µM. For `CC(C)CC(NC(=O)CCCCCNC(=O)NC(C)(C)C)C(=O)NC(CC(=O)O)c1ccccc1` (centres unmarked) [compound 1107], the IC50 was over 10 µM. In the case of `CC(C)CC(NC(=O)Cc1ccc(NC(=O)Nc2ccncc2)cc1)C(=O)NC(CC(=O)O)c1ccc2c(c1)OCO2` (centres unmarked) [compound 1182], the IC50 is reported as 0.05 to 10 µM. `CSCCC(NC(=O)Cc1ccccc1)C(=O)NC(CC(=O)O)c1ccc2c(c1)OCO2` (centres unmarked) [compound 1164] was tested, and the IC50 was 0.05 to 10 µM. In the case of `CC(C)CC(NC(=O)Cc1ccc(NC(=O)OC(C)(C)C)cc1)C(=O)NC(CC(=O)O)c1ccccc1` (centres unmarked) [compound 1145], the IC50 is reported as 0.05 to 10 µM. In the case of `Cc1ccccc1NC(=O)Nc1ccc(CC(=O)NC(CC(C)C)C(=O)NC(CC(=O)O)c2ccc(F)cc2)cc1` (centres unmarked) [compound 1248], the IC50 is reported as under 0.05 µM. With `COc1ccc(C(CC(=O)O)NC(=O)C(CC(C)C)NC(=O)Cc2ccc(NC(=O)Nc3cccnc3C)cc2)cc1` (centres unmarked) [compound 1220] the IC50 was 0.05 to 10 µM. `CNC(=O)Nc1ccccc1C(=O)Nc1ccc(CC(=O)NC(CC(C)C)C(=O)NC(CC(=O)O)c2ccccc2)cc1` (centres unmarked) [compound 1029] was tested, and the IC50 was over 10 µM. Molecule `CC(C)CC(NC(=O)Cc1ccc(NC(=O)Nc2cccc(Cl)c2)cc1)C(=O)NC(CC(=O)O)c1ccc2c(c1)OCO2` (centres unmarked) [compound 1181] has an IC50 of 0.05 to 10 µM. Molecule `CC(C)CC(NC(=O)Cc1ccc(NC(=O)Nc2ccccc2C(C)(C)C)cc1)C(=O)NC(CC(=O)O)c1ccc2c(c1)OCO2` (centres unmarked) [compound 1209] has an IC50 of over 10 µM. `CCCCCCC(=O)NC(CC(C)C)C(=O)NC(CC(=O)O)c1ccccc1` (centres unmarked) [compound 1094] showed an IC50 of over 10 µM. For `COc1cc(CC(=O)NC(CC(C)C)C(=O)NC(CC(=O)O)c2ccc3c(c2)OCO3)ccc1NC(=O)Nc1ccccc1` (centres unmarked) [compound 1056], the IC50 was under 0.05 µM. `COc1ccc(C(CC(=O)O)NC(=O)C(CC(C)C)NC(=O)Cc2ccc(NC(=O)Nc3nccs3)cc2)cc1` (centres unmarked) [compound 1180] showed an IC50 of 0.05 to 10 µM. `CC(C)CC(NC(=O)Cc1cccc(NC(=O)OCc2ccccc2)c1)C(=O)NC(CC(=O)O)c1ccccc1` (centres unmarked) [compound 1031] gave an IC50 of over 10 µM. `CC(C)CC(NC(=O)Cc1ccc(NC(=O)c2ccccc2)cc1)C(=O)NC(CC(=O)O)c1ccc2c(c1)OCO2` (centres unmarked) [compound 1075] was tested, and the IC50 was 0.05 to 10 µM. Work on `COc1ccc(C(CC(=O)O)NC(=O)C(CCSC)NC(=O)Cc2ccc(NC(=O)Nc3ccccc3)cc2)cc1` (centres unmarked) [compound 1089] yielded an IC50 of under 0.05 µM. `COc1ccc(C(CC(=O)O)NC(=O)C(CC(C)C)NC(=O)Cc2ccc(NC(=O)Nc3ccccc3OC)cc2)cc1` (centres unmarked) [compound 1192] gave an IC50 of under 0.05 µM. `CC(C)CC(NC(=O)Cc1ccc(NC(=O)NC(C)C)cc1)C(=O)NC(CC(=O)O)c1ccc2c(c1)OCO2` (centres unmarked) [compound 1065] gave an IC50 of 0.05 to 10 µM. `O=C(O)CC(NC(=O)C(CCC(=O)N1CCOCC1)NC(=O)Cc1ccc(NC(=O)Nc2ccccc2)cc1)c1ccc2c(c1)OCO2` (centres unmarked) [compound 1216] showed an IC50 of 0.05 to 10 µM. `CN(C)CCC(NC(=O)Cc1ccc(NC(=O)Nc2ccccc2)cc1)C(=O)NC(CC(=O)O)c1ccc2c(c1)OCO2` (centres unmarked) [compound 1215] gave an IC50 of over 10 µM. Work on `CC(C)CC(NC(=O)CCCc1ccccc1)C(=O)NC(CC(=O)O)c1ccccc1` (centres unmarked) [compound 1082] yielded an IC50 of over 10 µM. With `COc1ccc(C(CC(=O)O)NC(=O)C(CCSC)NC(=O)Cc2ccc(NC(=O)Nc3ccccc3C)cc2)cc1OC` (centres unmarked) [compound 1224] the IC50 was under 0.05 µM. `CC(C)CC(NC(=O)Cc1ccccc1)C(=O)NC(CC(=O)O)c1ccc2c(c1)OCO2` (centres unmarked) [compound 1158] gave an IC50 of 0.05 to 10 µM. `COc1ccc(C(CC(=O)O)NC(=O)C(CC(C)C)NC(=O)Cc2ccc(NC(=O)Nc3cccnc3)cc2)cc1OC` (centres unmarked) [compound 1219] showed an IC50 of 0.05 to 10 µM. `CCC(C)C(NC(=O)Cc1ccccc1)C(=O)NC(CC(=O)O)c1ccccc1` (centres unmarked) [compound 1040] showed an IC50 of 0.05 to 10 µM. With `CC(C)CC(NC(=O)Cc1ccccn1)C(=O)NC(CC(=O)O)c1ccccc1` (centres unmarked) [compound 1004] the IC50 was over 10 µM. `C#CCN(C)C(=O)CC(NC(=O)Cc1ccc(NC(=O)Nc2ccccc2)cc1)C(=O)NC(CC(=O)O)c1ccc2c(c1)OCO2` (centres unmarked) [compound 1177] showed an IC50 of 0.05 to 10 µM. `CC(C)CC(NC(=O)Cc1cccnc1)C(=O)NC(CC(=O)O)c1ccccc1` (centres unmarked) [compound 1005] was tested, and the IC50 was over 10 µM.
